# According to US10640545B2 (THE GOVERNORS OF THE UNIVERSITY OF ALBERTA, priority 2017, dated 2020):
# “Also recorded” adds a separate entry of the source. *1 amine or outer side, *2 acyl side, *3 side chain or, on linkers, in order; H or OH if unused. Where a SMILES comes first, the peptide text is derived from it. [ ]: non-standard residue; d: D form. Phe(4-Br) = N[C@@H](Cc1ccc(Br)cc1)C(=O)O; X1 = N=C(N)NCCCN(N[*:1])C(=O)[*:2]; αMeR = C[C@](N)(CCCNC(=N)N)C(=O)O; NMeL = CN[C@@H](CC(C)C)C(=O)O; pGlu = O=C1CC[C@@H](C(=O)O)N1; αMeL = CC(C)C[C@](C)(N)C(=O)O; Nle = CCCC[C@H](N)C(=O)O; Aib = CC(C)(N)C(=O)O
# Key:
# in vitro = details: human, plasma
# [1] = biological target: T1, wild-type rat apelin receptor (Rattus norvegicus, UniProt Q9JHG3); experiment: Radioligand binding, displacement of [125I]-pyr-1-apelin-13 on CHO cell membranes; details: for weaker affinity compared to 1, by a factor: ratio of Ki to native 1; for Ki: displacement of [125I]-pyr-1-apelin-13 (0.2 nM), CHO membranes, rat apelin receptor-EGFP, means ± SE, read-out: Affinity Ki; for receptor binding affinity (in words): rat apelin receptor
# T1 construct: expressed in transfected cells
# T1 sequence (Q9JHG3 1-377): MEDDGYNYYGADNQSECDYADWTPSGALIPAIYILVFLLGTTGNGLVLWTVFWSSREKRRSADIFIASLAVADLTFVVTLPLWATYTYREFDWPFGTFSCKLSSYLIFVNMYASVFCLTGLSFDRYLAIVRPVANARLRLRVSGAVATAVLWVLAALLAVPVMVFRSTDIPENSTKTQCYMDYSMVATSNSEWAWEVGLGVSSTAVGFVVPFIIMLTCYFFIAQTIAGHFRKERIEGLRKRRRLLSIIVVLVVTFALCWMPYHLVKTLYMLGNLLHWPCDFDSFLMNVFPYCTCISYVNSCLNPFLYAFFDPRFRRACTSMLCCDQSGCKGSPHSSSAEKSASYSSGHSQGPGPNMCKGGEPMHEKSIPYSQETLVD
# Protocol: This experiment evaluated the ability of peptides of the present embodiments to bind to the wild-type rat apelin receptor, in order to examine the impact of synthetic modification within the critical RPRL motif of the apelin peptides.
# Membrane preparations from CHO cells stably expressing the wild-type rat apelin receptor-EGFP were prepared as previously described (Gerbier et al., New Structural Insights Into The Apelin Receptor: Identification Of Key Residues For Apelin binding; FASEB J. 2015, 29, 314-322; Iturrioz et. al., Development Of Original Metabolically-Stable Apelin-17 Peptides With Diuretic And Cardiovascular Effects; FASEB J. 2017, 31, 687-700.) Crude membrane preparations (1 μg total mass of membranes/assay) were incubated for 3 h at 20° C. with 0.2 nM [^125I]-pyr-1-apelin-13 (monoiodinated on Lys^8 with Bolton-Hunter reagent, Perkin Elmer, Wellesley, Mass., USA) in binding buffer (50 mM HEPES, 5 mM MgCl2 1149 pH 7.5, BSA 1%) alone or in presence of the different compounds at various concentrations. The reaction was stopped by adding 4 mL of cold binding buffer, filtered on Whatman GF/C filters and washed with 5 mL of cold binding buffer. Radioactivity was then counted using a Wizard 1470 Wallac gamma counter (Perkin Elmer, Turku, Finland). Binding experiment data were analyzed with Graph Pad Prism.
# anesthetized mice = experiment: Blood pressure assay in anesthetized mice; assay type: in vivo; details: 1.4 μM/kg body weight injected; for blood pressure lowering (hypotensive) effect: SBP, DBP, MABP
# Protocol: Synthetic peptides 8-19 were tested for blood pressure lowering abilities in anesthetized mice. Apelin peptides were injected through […], monitoring blood pressure (BP) and heart rate (HR) over 60 minutes.
# Mice were anaesthetized with 1.5% isoflurane/oxygen, and body temperature was monitored and maintained at 36° C. by a heating pad. The aorta was cannulated via the right carotid artery using a PV loop catheter (Model 1.2F from Scisense, Transonic) in order to continuously record arterial blood pressure and heart rate (LabScribe 2.0, Scisense). […] Results are reported as systolic blood pressure (SBP), diastolic blood pressure (DBP), mean arterial blood pressure (MABP) and heart rate (HR).
# Apelin peptides 11, 56-59 as well as the KLKB1-cleavage fragments 54 and 55 were tested for blood pressure lowering abilities in anesthetized mice.
# Mice were anesthetized with 1.5% isoflurane/oxygen, and body temperature was monitored and maintained at 36° C. by a heating pad. The aorta was cannulated via the right carotid artery using a PV loop catheter (model 1.2F from Scisense, Transonic) in order to continuously record arterial blood pressure and heart rate (LabScribe 2.0, Scisense). Compounds 11, and 54-59 or 55-59 (1.4 μM/kg body weight) or the same volume of saline was injected via the right jugular vein. Results are reported as systolic blood pressure (SBP), diastolic blood pressure (DBP), mean arterial blood pressure (MABP), and heart rate (HR) shown in FIGS. 15A-D.
# Apelin peptides were delivered systemically via the right internal jugular vein while blood pressure (BP) and heart rate (HR) were continuously monitored in the aorta cannulated via the right carotid artery. All N-terminally extended apelin peptides, except 58, show pronounced and time-stable blood pressure lowering effects (FIGS. 15a-d). […] This correlates with the results obtained from the Ca^2+ mobilization assay.
# [2] = tested on: recombinant human neprilysin (rhNEP, Sino Biological); experiment: rhNEP diluted in Tris buffer (100 mM Tris, 100 mM NaCl, 10 μM ZnCl2, pH 7.5), 3.1 nM final concentration; details: 37° C., up to 72 h
molecule,measurement,setting,value
CCCC[C@H](NC(=O)[C@@H]1CCCN1C(=O)CNC(=O)[C@H](CCCCN)NC(=O)[C@H](Cc1c[nH]cn1)NC(=O)[C@H](CO)NC(=O)[C@H](CC(C)C)NC(=O)[C@H](CCCNC(=N)N)NC(=O)[C@@H]1CCCN1C(=O)[C@H](CCCNC(=N)N)NC(=O)[C@@H]1CCC(=O)N1)C(=O)NC(C)(C)C(=O)N[C@@H](Cc1ccc(Br)cc1)C(=O)O [Peptide 4] ([pGlu]RPRLSHKGP[Nle][Aib][Phe(4-Br)]-OH; C-terminus assumed),"remaining at 0.5 h, 80 µM",in vitro,77 ± 19%
same,"remaining at 1 h, 80 µM",in vitro,65 ± 14%
same,"weaker affinity compared to 1, by a factor",[1],6
same,blood pressure lowering (hypotensive) effect,anesthetized mice,potent physiological effects
"CCCC[C@H](NC(=O)[C@@H]1CCCN1C(=O)CNC(=O)[C@H](CCCCN)NC(=O)[C@H](Cc1c[nH]cn1)NC(=O)[C@H](CO)NC(=O)[C@@H](CC(C)C)NC(=O)[C@H](CCCNC(=N)N)NC(=O)[C@@H]1CCCN1C(=O)[C@H](CCCNC(=N)N)NC(=O)[C@@H]1CCC(=O)N1)C(=O)NC(C)(C)C(=O)N[C@@H](Cc1ccc(Br)cc1)C(=O)O [Peptide 8, pGlu-Arg-Pro-Arg-D-Leu-Ser-His-Lys-Gly-Pro-Nle-Aib-paraBrPhe] ([pGlu]RPR[dL]SHKGP[Nle][Aib][Phe(4-Br)]-OH; C-terminus assumed)","remaining at 0.5 h, 80 µM",in vitro,32 ± 2%
same,"remaining at 1 h, 80 µM",in vitro,22 ± 1%
same,Ki,[1],0.12 ± 0.035 nM
same,receptor binding affinity (in words),[1],modest improvement in receptor binding
same,blood pressure lowering (hypotensive) effect,anesthetized mice,no ability to decrease blood pressure; also recorded: inactivity
CCCC[C@H](NC(=O)[C@@H]1CCCN1C(=O)CNC(=O)[C@H](CCCCN)NC(=O)[C@H](Cc1c[nH]cn1)NC(=O)[C@H](CO)NC(=O)[C@@H](CC(C)C)NC(=O)[C@H](CCCNC(=N)N)NC(=O)[C@@H]1CCCN1C(=O)[C@H](CCCNC(=N)N)NC(=O)[C@H](CCC(N)=O)NC(=O)[C@H](CCCNC(=N)N)NC(=O)[C@H](CCCNC(=N)N)NC(=O)[C@H](Cc1ccccc1)NC(=O)[C@@H](N)CCCCN)C(=O)NC(C)(C)C(=O)N[C@@H](Cc1ccc(Br)cc1)C(=O)O [Peptide 9] (H-KFRRQRPR[dL]SHKGP[Nle][Aib][Phe(4-Br)]-OH; N-terminus and C-terminus assumed),"remaining at 0.5 h, 80 µM",in vitro,80 ± 3%
same,"remaining at 1 h, 80 µM",in vitro,80 ± 4%
same,Ki,[1],0.14 ± 0.056 nM
same,effect on heart rate (HR),anesthetized mice,had an impact on the heart rate
same,blood pressure lowering (hypotensive) effect,anesthetized mice,inactivity; also recorded: without inducing any vasoactive effects
"CCCC[C@H](NC(=O)[C@@H]1CCCN1C(=O)CNC(=O)[C@H](CCCCN)NC(=O)[C@H](Cc1c[nH]cn1)NC(=O)[C@H](CO)NC(=O)[C@H](CC(C)C)N(C)C(=O)[C@H](CCCNC(=N)N)NC(=O)[C@@H]1CCCN1C(=O)[C@H](CCCNC(=N)N)NC(=O)[C@@H]1CCC(=O)N1)C(=O)NC(C)(C)C(=O)N[C@@H](Cc1ccc(Br)cc1)C(=O)O [Peptide 10, pGlu-Arg-Pro-Arg-NMeLeu-Ser-His-Lys-Gly-Pro-Nle-Aib-paraBrPhe] ([pGlu]RPR[NMeL]SHKGP[Nle][Aib][Phe(4-Br)]-OH; C-terminus assumed)","remaining at 0.5 h, 80 µM",in vitro,77 ± 3%
same,"remaining at 1 h, 80 µM",in vitro,59 ± 6%
same,Ki,[1],0.1 ± 0.048 nM
same,receptor binding affinity (in words),[1],modest improvement in receptor binding
same,effect on heart rate (HR),anesthetized mice,significant and pronounced effect of increasing the murine HR; also recorded: had an impact on the heart rate
same,blood pressure lowering (hypotensive) effect,anesthetized mice,no ability to decrease blood pressure; also recorded: without inducing any vasoactive effects
"CCCC[C@H](NC(=O)[C@@H]1CCCN1C(=O)CNC(=O)[C@H](CCCCN)NC(=O)[C@H](Cc1c[nH]cn1)NC(=O)[C@H](CO)NC(=O)[C@H](CC(C)C)NC(=O)[C@](C)(CCCNC(=N)N)NC(=O)[C@@H]1CCCN1C(=O)[C@H](CCCNC(=N)N)NC(=O)[C@@H]1CCC(=O)N1)C(=O)NC(C)(C)C(=O)N[C@@H](Cc1ccc(Br)cc1)C(=O)O [Peptide 12, pGlu-Arg-Pro-αMeArg-Leu-Ser-His-Lys-Gly-Pro-Nle-Aib-paraBrPhe] ([pGlu]RP[αMeR]LSHKGP[Nle][Aib][Phe(4-Br)]-OH; C-terminus assumed)","remaining at 1 h, 80 µM",in vitro,62 ± 6%
same,Ki,[1],0.56 ± 0.033 nM
same,"weaker affinity compared to 1, by a factor",[1],2
"CCCC[C@H](NC(=O)[C@@H]1CCCN1C(=O)CNC(=O)[C@H](CCCCN)NC(=O)[C@H](Cc1c[nH]cn1)NC(=O)[C@H](CO)NC(=O)[C@H](CC(C)C)NC(=O)[C@](C)(CCCNC(=N)N)NC(=O)[C@@H]1CCCN1C(=O)[C@H](CCCNC(=N)N)NC(=O)[C@H](CCC(N)=O)NC(=O)[C@H](CCCNC(=N)N)NC(=O)[C@H](CCCNC(=N)N)NC(=O)[C@H](Cc1ccccc1)NC(=O)[C@@H](N)CCCCN)C(=O)NC(C)(C)C(=O)N[C@@H](Cc1ccc(Br)cc1)C(=O)O [Peptide 13, Lys-Phe-Arg-Arg-Gln-Arg-Pro-αMeArg-Leu-Ser-His-Lys-Gly-Pro-Nle-Aib-paraBrPhe] (H-KFRRQRP[αMeR]LSHKGP[Nle][Aib][Phe(4-Br)]-OH; N-terminus and C-terminus assumed)","remaining at 0.5 h, 80 µM",in vitro,61 ± 10%
same,"remaining at 1 h, 80 µM",in vitro,55 ± 4%
same,Ki,[1],0.13 ± 0.032 nM
same,effect on heart rate (HR),anesthetized mice,had an impact on the heart rate
same,blood pressure lowering (hypotensive) effect,anesthetized mice,without inducing any vasoactive effects
"CCCC[C@H](NC(=O)[C@@H]1CCCN1C(=O)CNC(=O)[C@H](CCCCN)NC(=O)[C@H](Cc1c[nH]cn1)NC(=O)[C@H](CO)NC(=O)[C@](C)(CC(C)C)NC(=O)[C@H](CCCNC(=N)N)NC(=O)[C@@H]1CCCN1C(=O)[C@H](CCCNC(=N)N)NC(=O)[C@@H]1CCC(=O)N1)C(=O)NC(C)(C)C(=O)N[C@@H](Cc1ccc(Br)cc1)C(=O)O [Peptide 14, pGlu-Arg-Pro-Arg-αMeLeu-Ser-His-Lys-Gly-Pro-Nle-Aib-paraBrPhe] ([pGlu]RPR[αMeL]SHKGP[Nle][Aib][Phe(4-Br)]-OH; C-terminus assumed)","remaining at 0.5 h, 80 µM",in vitro,45 ± 6%
same,"remaining at 1 h, 80 µM",in vitro,38 ± 3%
same,Ki,[1],0.17 ± 0.05 nM
same,receptor binding affinity (in words),[1],modest improvement in receptor binding
same,effect on heart rate (HR),anesthetized mice,significant and pronounced effect of increasing the murine HR; also recorded: had an impact on the heart rate
same,blood pressure lowering (hypotensive) effect,anesthetized mice,without inducing any vasoactive effects
"CCCC[C@H](NC(=O)[C@@H]1CCCN1C(=O)CNC(=O)[C@H](CCCCN)NC(=O)[C@H](Cc1c[nH]cn1)NC(=O)[C@H](CO)NC(=O)[C@H](CC(C)C)NC(=O)N(CCCNC(=N)N)NC(=O)[C@@H]1CCCN1C(=O)[C@H](CCCNC(=N)N)NC(=O)[C@@H]1CCC(=O)N1)C(=O)NC(C)(C)C(=O)N[C@@H](Cc1ccc(Br)cc1)C(=O)O [Peptide 16, pGlu-Arg-Pro-azaArg-Leu-Ser-His-Lys-Gly-Pro-Nle-Aib-paraBrPhe] ([pGlu]RP[X1]LSHKGP[Nle][Aib][Phe(4-Br)]-OH; C-terminus assumed)","remaining at 0.5 h, 80 µM",in vitro,83 ± 3%
same,"remaining at 1 h, 80 µM",in vitro,57 ± 1%
same,Ki,[1],1 ± 0.1 nM
same,"weaker affinity compared to 1, by a factor",[1],3
same,effect on heart rate (HR),anesthetized mice,significant and pronounced effect of increasing the murine HR; also recorded: had an impact on the heart rate
same,blood pressure lowering (hypotensive) effect,anesthetized mice,without inducing any vasoactive effects
Lys-Phe-Arg-Arg-Gln-Arg-Pro-Arg-azaLeu-Ser-His-Lys-Gly-Pro-Nle-Aib-paraBrPhe,cleaved bond,[2],"Nle15-Aib16, minor"
